Assays:
[1] = biological target: T1, MAO-A (Homo sapiens, UniProt P21397); assay: Effect of drugs on the binding of [^18F]FAZIN3 in postmortem human brain sections; details: for selectivity of binding for MAO-A versus MAO-B: by use of clorgyline (MAO-A inhibitor) and deprenyl (MAO-B inhibitor)
T1 construct: tissue Banner Sun Health Research Institute; host or cells: postmortem human anterior cingulate / corpus callosum sections (CN, AD, PD subjects)
T1 sequence (P21397 1-527): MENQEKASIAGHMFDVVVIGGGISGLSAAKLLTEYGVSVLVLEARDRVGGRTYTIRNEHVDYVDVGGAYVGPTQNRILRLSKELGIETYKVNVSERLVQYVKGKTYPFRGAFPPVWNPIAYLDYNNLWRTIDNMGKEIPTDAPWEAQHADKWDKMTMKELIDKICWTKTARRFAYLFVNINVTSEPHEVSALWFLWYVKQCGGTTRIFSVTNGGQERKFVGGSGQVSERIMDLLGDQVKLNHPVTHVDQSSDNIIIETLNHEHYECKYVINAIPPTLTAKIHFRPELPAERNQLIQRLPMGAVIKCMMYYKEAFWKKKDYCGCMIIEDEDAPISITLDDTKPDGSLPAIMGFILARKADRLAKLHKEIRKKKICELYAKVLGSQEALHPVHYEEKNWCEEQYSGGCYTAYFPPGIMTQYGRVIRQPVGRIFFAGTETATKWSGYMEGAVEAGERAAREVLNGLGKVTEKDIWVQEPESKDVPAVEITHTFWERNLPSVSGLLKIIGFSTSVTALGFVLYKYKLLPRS
Procedure: MK-6240 (10 μM) was used since it is known to bind to Tau. […] The slides containing the sections (10 μm thick) were preincubated in PBS buffer for 15 minutes in eight different slide chambers (one total binding and seven with the different drugs). The preincubation PBS buffer was discarded and appropriate amount of each drug (dissolved in ethanol) was added to the chambers with the slides. […] The chambers were incubated at 25° C. for 1.25 h. The slides were then washed with cold PBS buffer twice, and cold water, respectively. The slides with the brain sections were air dried, exposed overnight on a phosphor film, and then placed on the Phosphor Autoradiographic Imaging System/Cyclone Storage Phosphor System (Packard Instruments Co).

[2] = biological target: Tau protein (Homo sapiens, UniProt P10636); assay: In vitro binding in human AD brain slices using [^125I]IPPI; details: [^125I]IPPI labeled human AD brain slices
Procedure: Assessing the binding specificity of Flotaza. In vitro binding affinity of Flotaza in human AD brain slices using [^3H]PIB for Aβ plaques and [^125I]IPPI for Tau were carried out. […] Thus, Flotaza is a selective Aβ plaque agent.

[3] = tested on: Aβ plaques; assay: Postmortem human brain autoradiography of [^18F]Flotaza in AD subjects; format: binding
Text: Postmortem human brain autoradiography [^18F]Flotaza in AD subjects. Well characterized brain samples were obtained from Banner Health Research Institute. Brain slices from six AD subjects included anterior cingulate (gray matter, GM) and corpus callosum (white matter, WM) as shown for one subject in FIG. 24A. The AD brain sections of the six AD subjects were further confirmed to contain Aβ plaques in the GM regions by immunostaining with anti-Aβ Biolegend (known to stain Aβ1-16) as shown in FIG. 24B.
It must be noted that in these experiments, after [^18F]Flotaza binding, the slices were washed with 50% alcohol in PBS buffer.

[4] = biological target: human Aβ plaques (Homo sapiens, UniProt P05067); assay: In vitro binding affinity in human AD brain slices using [^3H]PIB; details: human AD brain slices (anterior cingulate, corpus callosum)
Procedure: Analytical thin-layer chromatography (TLC) was used to monitor reactions (Baker-flex, Phillipsburg, N.J., USA). RadioTLC were scanned on an AR-2000 imaging scanner (Eckart & Ziegler, Berlin, Germany). Electrospray mass spectra were obtained from a Model 7250 mass spectrometer (Micromass LCT). Proton NMR spectra were recorded on a Bruker OM EGA 500-MHz spectrometer. Tritium was assayed by using a Packard Tri-Carb Liquid scintillation counter with 65% efficiency. Human postmortem brain tissue samples were obtained from Banner Sun Health Research Institute, Sun City, Ariz. brain tissue repository for in vitro experiments. Age and gender matched AD brain and cognitively normal (CN) brain tissue samples selected for end-stage pathology (Braak & Braak stage of VI; Braak and Braak 1991). Human postmortem brain slices were obtained from chunks of frozen tissue on a Leica 1850 cryotome cooled to −20° C. Tritium and iodine-125, and fluorine-18 autoradiographic studies were carried out by exposing tissue samples on storage phosphor screens (Perkin Elmer Multisensitive, Medium MS and tritium sensitive phosphor screens). The apposed phosphor screens were read and analyzed by OptiQuant acquisition and analysis program of the Cyclone Storage Phosphor System (Packard Instruments Co., Boston, Mass.). […]

[5] = tested on: Aβ plaques; details: hippocampal AD brain sections; cited from earlier work
[6] = tested on: Tau protein; assay: [^125I]IPPI / [^124I]IPPI autoradiography of postmortem AD brain slices; format: binding, human
Procedure: FIG. 18A-H: provides the results of [^125I]IPPI competitive binding assay with various inhibitors. (A) Postmortem human brain 10 μm thick sections (from two AD subjects, 11-107 and 11-38) of anterior cingulate (AC) grey matter (arrows showing GM) and corpus callosum (CC) white matter (WM). (B) [^125I]IPPI binding to grey matter, AC with low nonspecific binding in white matter, CC. […] (E) BrPPI, 10 μM effect on [^125I ]IPPI binding. (F) MK-6240, 10μM effect on [^125I]IPPI binding. (G) Immunostaining of 11-38 with Dako A0024 for total Tau; (i) picture of entire slice and (ii) magnification (x10) of box in (i). (H) Plot comparing GM and WM in the two AD subjects with different drugs.

[7] = tested on: Aβ plaques; assay: ^125I-IAZA brain autoradiography in postmortem human AD brain; format: binding; details: anterior cingulate
Text: FIG. 22A-F provides the results of brain autoradiography in postmortem human brain from an Alzheimer patient using ^125I-IAZA and ^124I-IAZA. (A) AD brain slice showing gray matter (GM), anterior cingulate and white matter (WM) corpus callosum. […] (D) AD brain cortex slice showing gray matter on the left edges. (E)-(F) ^125I-IAZA binding in the outer regions containing gray matter which is consistent with Tau buildup.

Chain of Tau protein (Homo sapiens, UniProt P10636) (P10636 with tags, fused parts or gaps): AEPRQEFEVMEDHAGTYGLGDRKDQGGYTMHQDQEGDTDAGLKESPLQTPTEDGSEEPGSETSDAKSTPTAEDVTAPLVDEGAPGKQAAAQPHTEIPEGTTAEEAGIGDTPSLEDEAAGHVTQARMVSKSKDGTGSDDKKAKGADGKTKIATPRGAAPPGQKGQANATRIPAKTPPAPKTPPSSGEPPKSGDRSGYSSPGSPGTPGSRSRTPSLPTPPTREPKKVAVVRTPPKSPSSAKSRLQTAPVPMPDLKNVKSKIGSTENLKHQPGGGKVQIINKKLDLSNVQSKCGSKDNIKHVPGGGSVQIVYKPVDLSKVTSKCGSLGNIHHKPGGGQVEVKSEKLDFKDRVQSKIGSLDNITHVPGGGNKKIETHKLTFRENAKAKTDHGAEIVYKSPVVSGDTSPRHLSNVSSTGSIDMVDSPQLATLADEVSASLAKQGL
Chain of human Aβ plaques (P05067 672-713): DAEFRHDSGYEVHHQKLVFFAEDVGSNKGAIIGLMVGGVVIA

4-O-[^18F]FluoroPEG3-2-(1H-pyrrolo[2,3-c]pyridine-1-yl)pyridine [[^18F]FAZIN3]
selectivity of binding for MAO-A versus MAO-B [1]: selective MAO-A binding

FCCOCCOCCOc1ccnc(-n2ccc3ccncc32)c1 [FAZIN3, 4-O-FluoroPEG3-2-(1H-pyrrolo[2,3-c]pyridine-1-yl)pyridine]
selectivity of binding for MAO-A versus MAO-B [1]: selectively bound to MAO-A

CN(C)c1ccc(N=Nc2ccc(OCCOCCOCCF)cc2)cc1 [Flotaza]
effect on the binding of [^125I]IPPI [2]: did not have any significant effect

Nc1c(F)ccc2cnc(-n3ccc4ccncc43)cc12 [MK-6240, reference compound]
displacement (inhibition) of [^18F]FAZIN3 binding ([1]; drug 10 μM, human brain sections): did not have much effect

CNc1ccc(-c2nc3ccc(O)cc3s2)cc1 [PIB, reference compound]
effect on grey matter binding of [^18F]Flotaza ([3]; AD brain sections treated with the drug): significantly reduced

CNc1ccc(N=Nc2ccc(N(C)C)cc2)cc1 [TAZA]
Ki [4]: 0.54 nM

[11CH3]Nc1ccc(-c2nc3ccc(O)cc3s2)cc1 [[^11C]PIB]
GM/WM ratios [5]: lower GM/WM ratios

CN(C)c1ccc(N=Nc2ccc(OCCOCCOCC[18F])cc2)cc1 [[^18F]Flotaza]
binding in the grey matter regions of AD subjects ([3]; anterior cingulate, AD subjects): Extensive binding
ratio between gray matter and white matter binding ([3]; six AD subjects, slices washed with 50% alcohol in PBS buffer): > 100

[125I]c1ccc2cnc(-n3ccc4ccncc43)cc2c1 [[^125I]IPPI, 6-[^125I]iodo-3-(1H-pyrrolo[2,3-c]pyridine-1-yl)isoquinoline]
sensitivity of binding to MAO inhibitors ([6]; MAO inhibitors at <1 μM concentrations): resistance to MAO inhibitors
binding to Tau protein / neurofibrillary tangles in Alzheimer's disease brain grey matter ([6]; postmortem AD brain slices): Excellent binding

CN(C)c1ccc(N=Nc2ccc([125I])cc2)cc1 [^125I-IAZA]
binding in gray matter of AD brain slices [7]: binding in the gray matter regions

From patent US20220008563A1, “RADIOLABELLED AND NONRADIOLABELLED PEGYLATED COMPOUNDS AND USES THEREOF” (The Regents of the University of California, priority 2020, published 2022)
